Values joined by “and” are separate entries in the source; they are usually repeats but may differ in a detail not shown here. Equal entries are not always repeated.
System: panel of six GA-specific long-term human T-cell lines (222-2D8, 222-2F12, 165-F3C, 165-F6C, 205-1C4, 205-1F4)
Test: GA-specific human T-cell line panel assay (ATP proliferation): GA test lots and altered GA lots compared with Copaxone
Assay type: cell-based
Conditions: for ATP Proliferation Assay, Mean / Proliferation (ATP assay), Mean: 4 days
Method: Proliferation assays, using the panel of six GA-specific long-term human T-cell lines listed in Table 78, were carried out to compare […] GA test lots, GMA/009/14 (GA Lot 009), GMA/010/14 (GA Lot 010), GMA/011/14 (GA Lot 011), GMA/012/14 (GA Lot 012), GMA/013/14 (GA Lot 013), GMA/014/14 (GA Lot 014), GA Lot 016, GMA/017/14 (GA Lot 017), GMA/018/14 (GA Lot 018), and GMA/070/14 (GA Lot 070), manufactured using standard methods, to a Copaxone reference lot.
Each T-cell line was restimulated using methods described above, using five concentrations of the reference antigen (0.5, 1, 2, 2.5, and 5 μg/ml Copaxone), the same five concentrations of test antigen (the nine GA test lots), and a no antigen control, in the presence of 5×10^4 mitomycin-treated autologous B-LCL. Proliferation was measured by ATP assay after 4 days of incubation with antigen, using methods described previously.
The percentages in the last column of each table were calculated as follows: Proliferation response to test antigen minus proliferation response to control (no antigen)÷proliferation response to reference antigen minus proliferation response to control (no antigen)
The panel of six GA-specific human T-cell lines listed in Table 78 above was used to test the immunological identity of altered GA lots to Copaxone.
Proliferation assays using the panel of six GA-specific T-cell lines (Table 77) were carried out, to compare negative GA lots 051F, 054F, 055F, 057F, 058F, 059F, and 060F (test lots), to Copaxone (reference lot). Each cell line was restimulated using 5 concentrations of reference antigen (Copaxone) and test antigen (the negative GA lots), including a no antigen control (in the presence of 5×10^4 mitomycin-treated autologous B-LCL). Proliferation was measured by ATP assay after 4 days of incubation with antigen, using methods described previously.
The percentages in the last column of each table were calculated as follows: Proliferation response to test antigen minus proliferation response to control (no antigen)÷proliferation response to reference antigen minus proliferation response to control (no antigen).

Substance: glatiramer acetate [COP]
- ATP Proliferation Assay, Mean (T-cell line 165-F3C, 0.5 μg/mL): 4,783
- ATP Proliferation Assay, Mean (T-cell line 165-F3C, 1 μg/mL): 22,290
- ATP Proliferation Assay, Mean (T-cell line 165-F3C, 2 μg/mL): 53,771
- ATP Proliferation Assay, Mean (T-cell line 165-F3C, 2.5 μg/mL): 54,539
- ATP Proliferation Assay, Mean (T-cell line 165-F3C, 5 μg/mL): 58,110
- ATP Proliferation Assay, Mean (T-cell line 165-F6C, 0.5 μg/mL): 3,328
- ATP Proliferation Assay, Mean (T-cell line 165-F6C, 1 μg/mL): 4,620
- ATP Proliferation Assay, Mean (T-cell line 165-F6C, 2 μg/mL): 13,255
- ATP Proliferation Assay, Mean (T-cell line 165-F6C, 2.5 μg/mL): 18,726
- Mean, ATP proliferation assay (T-cell line 165-F6C, 5 μg/mL): 34,012 and 34,995 and 56,466 and 56,465 and 42,493 and 41,233 and 36,303
- ATP Proliferation Assay, Mean (T-cell line 165-F6C, 5 μg/mL): 38,653
- ATP Proliferation Assay, Mean (T-cell line 205-1C4, 0.5 μg/mL): 932
- ATP Proliferation Assay, Mean (T-cell line 205-1C4, 1 μg/mL): 2,481
- ATP Proliferation Assay, Mean (T-cell line 205-1C4, 2 μg/mL): 9,432
- ATP Proliferation Assay, Mean (T-cell line 205-1C4, 2.5 μg/mL): 13,744
- ATP Proliferation Assay, Mean (T-cell line 205-1C4, 5 μg/mL): 45,451
- ATP Proliferation Assay, Mean (T-cell line 205-1F4, 0.5 μg/mL): 548
- ATP Proliferation Assay, Mean (T-cell line 205-1F4, 1 μg/mL): 1,906
- ATP Proliferation Assay, Mean (T-cell line 205-1F4, 2 μg/mL): 9,959
- ATP Proliferation Assay, Mean (T-cell line 205-1F4, 2.5 μg/mL): 13,589
- ATP Proliferation Assay, Mean (T-cell line 205-1F4, 5 μg/mL): 18,491
- ATP Proliferation Assay, Mean (T-cell line 222-2D8, 0.5 μg/mL): 5,873
- ATP Proliferation Assay, Mean (T-cell line 222-2D8, 1 μg/mL): 14,017
- ATP Proliferation Assay, Mean (T-cell line 222-2D8, 2 μg/mL): 90,328
- ATP Proliferation Assay, Mean (T-cell line 222-2D8, 2.5 μg/mL): 129,878
- ATP Proliferation Assay, Mean (T-cell line 222-2D8, 5 μg/mL): 171,116
- ATP Proliferation Assay, Mean (T-cell line 222-2F12, 0.5 μg/mL): 10,879
- ATP Proliferation Assay, Mean (T-cell line 222-2F12, 1 μg/mL): 27,042
- ATP Proliferation Assay, Mean (T-cell line 222-2F12, 2 μg/mL): 105,024
- ATP Proliferation Assay, Mean (T-cell line 222-2F12, 2.5 μg/mL): 115,241
- ATP Proliferation Assay, Mean (T-cell line 222-2F12, 5 μg/mL): 129,291
- Proliferation (ATP assay), Mean (Table 95, T-cell line 165-F3C, GA conc. 0.5 μg/mL): 3,154
- Proliferation (ATP assay), Mean (Table 95, T-cell line 165-F3C, GA conc. 1 μg/mL): 9,050
- Proliferation (ATP assay), Mean (Table 95, T-cell line 165-F3C, GA conc. 2 μg/mL): 27,693
- Proliferation (ATP assay), Mean (Table 95, T-cell line 165-F3C, GA conc. 2.5 μg/mL): 28,018
- Proliferation (ATP assay), Mean (Table 95, T-cell line 165-F3C, GA conc. 5 μg/mL): 32,151
- Proliferation (ATP assay), Mean (Table 95, T-cell line 165-F6C, GA conc. 0.5 μg/mL): 863
- Proliferation (ATP assay), Mean (Table 95, T-cell line 165-F6C, GA conc. 1 μg/mL): 1,838
- Proliferation (ATP assay), Mean (Table 95, T-cell line 165-F6C, GA conc. 2 μg/mL): 8,163
- Proliferation (ATP assay), Mean (Table 95, T-cell line 165-F6C, GA conc. 2.5 μg/mL): 11,665
- Proliferation (ATP assay), Mean (Table 95, T-cell line 165-F6C, GA conc. 5 μg/mL): 30,422
- Proliferation (ATP assay), Mean (Table 95, T-cell line 205-1C4, GA conc. 0.5 μg/mL): 13,267
- Proliferation (ATP assay), Mean (Table 95, T-cell line 205-1C4, GA conc. 1 μg/mL): 26,848
- Proliferation (ATP assay), Mean (Table 95, T-cell line 205-1C4, GA conc. 2 μg/mL): 142,528
- Proliferation (ATP assay), Mean (Table 95, T-cell line 205-1C4, GA conc. 2.5 μg/mL): 159,785
- Proliferation (ATP assay), Mean (Table 95, T-cell line 205-1C4, GA conc. 5 μg/mL): 171,452
- Proliferation (ATP assay), Mean (Table 95, T-cell line 205-1F4, GA conc. 0.5 μg/mL): 6,984
- Proliferation (ATP assay), Mean (Table 95, T-cell line 205-1F4, GA conc. 1 μg/mL): 15,174
- Proliferation (ATP assay), Mean (Table 95, T-cell line 205-1F4, GA conc. 2 μg/mL): 46,598
- Proliferation (ATP assay), Mean (Table 95, T-cell line 205-1F4, GA conc. 2.5 μg/mL): 51,372
- Proliferation (ATP assay), Mean (Table 95, T-cell line 205-1F4, GA conc. 5 μg/mL): 61,252
- Proliferation (ATP assay), Mean (Table 95, T-cell line 222-2D8, GA conc. 0.5 μg/mL): 13,958
- Proliferation (ATP assay), Mean (Table 95, T-cell line 222-2D8, GA conc. 1 μg/mL): 87,807
- Proliferation (ATP assay), Mean (Table 95, T-cell line 222-2D8, GA conc. 2 μg/mL): 142,231
- Proliferation (ATP assay), Mean (Table 95, T-cell line 222-2D8, GA conc. 2.5 μg/mL): 140,804
- Proliferation (ATP assay), Mean (Table 95, T-cell line 222-2D8, GA conc. 5 μg/mL): 147,182
- Proliferation (ATP assay), Mean (Table 95, T-cell line 222-2F12, GA conc. 0.5 μg/mL): 3,580
- Proliferation (ATP assay), Mean (Table 95, T-cell line 222-2F12, GA conc. 1 μg/mL): 42,304
- Proliferation (ATP assay), Mean (Table 95, T-cell line 222-2F12, GA conc. 2 μg/mL): 108,046
- Proliferation (ATP assay), Mean (Table 95, T-cell line 222-2F12, GA conc. 2.5 μg/mL): 115,182
- Proliferation (ATP assay), Mean (Table 95, T-cell line 222-2F12, GA conc. 5 μg/mL): 123,169
- Proliferation (ATP assay), Mean (Table 96, T-cell line 165-F3C, GA conc. 0.5 μg/mL): 2,577
- Proliferation (ATP assay), Mean (Table 96, T-cell line 165-F3C, GA conc. 1 μg/mL): 5,743
- Proliferation (ATP assay), Mean (Table 96, T-cell line 165-F3C, GA conc. 2 μg/mL): 16,415
- Proliferation (ATP assay), Mean (Table 96, T-cell line 165-F3C, GA conc. 2.5 μg/mL): 20,446
- Proliferation (ATP assay), Mean (Table 96, T-cell line 165-F3C, GA conc. 5 μg/mL): 32,600
- Proliferation (ATP assay), Mean (Table 96, T-cell line 165-F6C, GA conc. 0.5 μg/mL): 2,228
- Proliferation (ATP assay), Mean (Table 96, T-cell line 165-F6C, GA conc. 1 μg/mL): 4,270
- Proliferation (ATP assay), Mean (Table 96, T-cell line 165-F6C, GA conc. 2 μg/mL): 15,430
- Proliferation (ATP assay), Mean (Table 96, T-cell line 165-F6C, GA conc. 2.5 μg/mL): 28,942
- Proliferation (ATP assay), Mean (Table 96, T-cell line 165-F6C, GA conc. 5 μg/mL): 45,836
- Proliferation (ATP assay), Mean (Table 96, T-cell line 205-1C4, GA conc. 0.5 μg/mL): 11,790
- Proliferation (ATP assay), Mean (Table 96, T-cell line 205-1C4, GA conc. 1 μg/mL): 26,004
- Proliferation (ATP assay), Mean (Table 96, T-cell line 205-1C4, GA conc. 2 μg/mL): 102,672
- Proliferation (ATP assay), Mean (Table 96, T-cell line 205-1C4, GA conc. 2.5 μg/mL): 124,300
- Proliferation (ATP assay), Mean (Table 96, T-cell line 205-1C4, GA conc. 5 μg/mL): 129,908
- Proliferation (ATP assay), Mean (Table 96, T-cell line 205-1F4, GA conc. 0.5 μg/mL): 8,158
- Proliferation (ATP assay), Mean (Table 96, T-cell line 205-1F4, GA conc. 1 μg/mL): 17,491
- Proliferation (ATP assay), Mean (Table 96, T-cell line 205-1F4, GA conc. 2 μg/mL): 51,613
- Proliferation (ATP assay), Mean (Table 96, T-cell line 205-1F4, GA conc. 2.5 μg/mL): 60,244
- Proliferation (ATP assay), Mean (Table 96, T-cell line 205-1F4, GA conc. 5 μg/mL): 54,345
- Proliferation (ATP assay), Mean (Table 96, T-cell line 222-2D8, GA conc. 0.5 μg/mL): 2,785
- Proliferation (ATP assay), Mean (Table 96, T-cell line 222-2D8, GA conc. 1 μg/mL): 28,970
- Proliferation (ATP assay), Mean (Table 96, T-cell line 222-2D8, GA conc. 2 μg/mL): 76,089
- Proliferation (ATP assay), Mean (Table 96, T-cell line 222-2D8, GA conc. 2.5 μg/mL): 90,666
- Proliferation (ATP assay), Mean (Table 96, T-cell line 222-2D8, GA conc. 5 μg/mL): 99,491
- Proliferation (ATP assay), Mean (Table 96, T-cell line 222-2F12, GA conc. 0.5 μg/mL): 2,404
- Proliferation (ATP assay), Mean (Table 96, T-cell line 222-2F12, GA conc. 1 μg/mL): 11,359
- Proliferation (ATP assay), Mean (Table 96, T-cell line 222-2F12, GA conc. 2 μg/mL): 78,880
- Proliferation (ATP assay), Mean (Table 96, T-cell line 222-2F12, GA conc. 2.5 μg/mL): 95,825
- Proliferation (ATP assay), Mean (Table 96, T-cell line 222-2F12, GA conc. 5 μg/mL): 107,930
